Data: patent US9241998B2 (Board of Regents, The University of Texas System, priority 2007, dated 2016)
Peptide text beside a SMILES is read from it. * marks the point of attachment. Cbz = O=C(OCc1ccccc1)*; CH2F = FC*

Key:
PC-3 cells = assay: Western blot of apoptosis proteins in RSV infected cells; type: cell-based, human
Method: Bcl-2, Bcl-xL, Bad, Bax antibodies were obtained from Cell Signaling, while caspase-3, PARP and GFP antibodies were from Santa Cruz. Heat shock protein-70 (Hsp70) (Santa Cruz) antibody was used as a loading control. Nuclear extracts prepared from infected cells were incubated with a ^32P-labeled NF-κB oligonucleotide probe and analyzed for EMSA as described previously.

RSV infected PC-3 cells = assay: RSV induced apoptosis (TUNEL) with caspase inhibitors or neutralizing antibodies; type: cell-based, human; conditions: for decline in RSV induced apoptosis (TUNEL): PC-3 cells, 36 h post-infection, 15 μM optimal for caspase-3, -9, -8 inhibitors
Method: PC-3 cells were pre-treated with control inhibitor (Z-FA-FMK) or caspase-3 (Z-DQMD-FMK), -8 (Z-IETD-FMK), -9 (Z-LEHD-FMK), -3/7 (Z-DEVD-FMK) (Calbiochem) and -12 (Z-ATAD-FMK) (MBL) inhibitors for 1 h at 37° C. Caspase-3, -8, -9 and -3/7 inhibitors at 15 μM-60 μM were used, while the caspase-12 inhibitor was used at 50 μM-100 μM. […] The cells were then washed and the infection was continued for an additional 36 h in the presence of inhibitors, following which apoptosis analysis was performed by TUNEL assay. […] In some experiments, infection was performed in the presence of both neutralizing antibody and caspase-3 or -8 inhibitors. At 36 h post-infection, cells were assayed for apoptosis. PC-3 and RWPE cells were pre-treated with either SN50 peptide (30 μM) or control SN50M (50 μM) peptide (Calbiochem) for 2 h, followed by virus infection (in the presence of peptides) for 0 h-36 h, after which cells were analyzed for apoptosis.

A549 cells = assay: Interferon-γ+Fas antibody mediated apoptosis in A549 cells; type: cell-based, human
Excerpt: (§1) The extrinsic pathway to apoptosis is induced following engagement of death receptors (e.g., TNF-receptor and Fas) with cognate ligands (TNF and FasL), leading to the activation of caspase-8. The ER-stress pathway (12) activation leads to activation of caspase-12. Activation of both caspase-8 and caspase-12 results in caspase-3 activation and apoptosis. […] Similarly, blocking caspase-9 activity also led to significant inhibition (by 75%) in apoptosis. […] It is important to note that the caspase-8 inhibitor is active, since it reduced interferon-γ+Fas antibody mediated apoptosis (14) in A549 cells by 60%.

[1] = test system: human lung epithelial A549 cells; assay: RSV mediated apoptosis in A549 cells with caspase inhibitor; type: cell-based
Excerpt: as §1

COC(=O)CC[C@H](NC(=O)[C@H](CC(=O)OC)NC(=O)OCc1ccccc1)C(=O)N[C@H](C(=O)N[C@@H](CC(=O)OC)C(=O)CF)C(C)C [Z-DEVD-FMK]
PARP cleavage in RSV infected cells treated with inhibitor (PC-3 cells): prevented PARP cleavage

COC(=O)C[C@H](NC(=O)[C@H](CCSC)NC(=O)[C@H](CCC(N)=O)NC(=O)[C@H](CC(=O)OC)NC(=O)OCc1ccccc1)C(=O)CF [caspase-3 inhibitor, Z-DQMD-FMK] (Cbz-D(OMe)QMD(OMe)-CH2F)
PARP cleavage in RSV infected cells treated with inhibitor (PC-3 cells): prevented PARP cleavage
decline in RSV induced apoptosis (TUNEL) (RSV infected PC-3 cells): 85%

CC[C@H](C)[C@H](NC(=O)OCc1ccccc1)C(=O)N[C@@H](CCC(=O)OC)C(=O)N[C@H](C(=O)N[C@@H](CC(=O)OC)C(=O)CF)[C@@H](C)O [caspase-8 inhibitor, Z-IETD-FMK] (Cbz-IE(OMe)TD(OMe)-CH2F)
decline in RSV induced apoptosis (TUNEL) (RSV infected PC-3 cells): 15%
reduction of interferon-γ+Fas antibody mediated apoptosis (A549 cells): 60%

COC(=O)CC[C@H](NC(=O)[C@H](CC(C)C)NC(=O)OCc1ccccc1)C(=O)N[C@@H](Cc1cnc[nH]1)C(=O)N[C@@H](CC(=O)OC)C(=O)CF [caspase-9 inhibitor, Z-LEHD-FMK] (Cbz-LE(OMe)HD(OMe)-CH2F)
decline in RSV induced apoptosis (TUNEL) (RSV infected PC-3 cells): 75%

C[C@H](NC(=O)OCc1ccccc1)C(=O)N[C@H](C(=O)N[C@@H](C)C(=O)N[C@@H](CC(=O)O)C(=O)CF)[C@@H](C)O [caspase-12 inhibitor, Z-ATAD-FMK] (Cbz-ATAD-CH2F)
decline in RSV induced apoptosis (TUNEL) (RSV infected PC-3 cells): did not alter apoptosis
inhibition of apoptosis in infected PC-3 cells at high concentration (RSV infected PC-3 cells; up to 100 μM): failed to inhibit apoptosis
inhibition of RSV mediated apoptosis [1]: 40%
